From patent US10039759B2, “Quinolines as FGFR kinase modulators” (priority 2011, dated 2018) come the findings set out here.

Like-named read-outs stand apart in the source and are kept apart here.

In assay [1] the target is FGFR2 (h) (Homo sapiens, UniProt P21802). The assay can be described thus: FGFR2 (enzymatic assay), TR-FRET. It counts as biochemical. The conditions noted are these: 60 min, pIC50 = -log IC50 (M), average if tested multiple times. (In general: Time-resolved FRET reads energy transfer from a long-lived donor to a nearby acceptor.)
FGFR2 (h), sequence (P21802 22-821): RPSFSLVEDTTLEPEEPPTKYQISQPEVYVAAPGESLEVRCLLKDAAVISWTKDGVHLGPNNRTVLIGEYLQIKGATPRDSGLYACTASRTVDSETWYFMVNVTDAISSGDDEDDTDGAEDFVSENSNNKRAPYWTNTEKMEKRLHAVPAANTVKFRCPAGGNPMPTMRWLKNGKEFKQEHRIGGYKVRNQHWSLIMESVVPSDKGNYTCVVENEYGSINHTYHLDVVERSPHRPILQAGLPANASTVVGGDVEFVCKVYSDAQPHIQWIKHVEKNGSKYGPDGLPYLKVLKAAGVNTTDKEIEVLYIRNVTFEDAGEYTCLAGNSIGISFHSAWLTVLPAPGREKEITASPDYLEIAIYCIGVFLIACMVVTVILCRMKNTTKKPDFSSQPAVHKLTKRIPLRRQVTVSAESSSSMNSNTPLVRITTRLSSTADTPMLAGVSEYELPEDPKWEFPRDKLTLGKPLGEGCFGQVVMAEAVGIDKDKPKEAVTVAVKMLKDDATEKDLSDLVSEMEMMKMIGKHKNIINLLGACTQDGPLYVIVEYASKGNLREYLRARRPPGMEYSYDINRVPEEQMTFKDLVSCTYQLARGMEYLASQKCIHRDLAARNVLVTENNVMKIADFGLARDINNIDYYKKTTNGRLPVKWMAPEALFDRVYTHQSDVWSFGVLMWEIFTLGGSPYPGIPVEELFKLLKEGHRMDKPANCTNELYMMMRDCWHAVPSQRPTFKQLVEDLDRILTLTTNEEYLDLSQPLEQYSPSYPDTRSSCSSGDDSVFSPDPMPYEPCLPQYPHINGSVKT
Assay [2] addresses FGFR3 (h) (Homo sapiens, UniProt P22607). The assay can be described thus: FGFR3 (enzymatic assay), TR-FRET. The format is biochemical. The settings on record: 60 min, pIC50 = -log IC50 (M), average if tested multiple times.
The target of assay [3] is FGFR4 (h) (Homo sapiens, UniProt P22455). The assay can be described thus: FGFR4 (enzymatic assay), TR-FRET. The format is biochemical. The conditions noted are these: FGFR 4 pIC50, 5 μM ATP, 60 min; pIC50 = -log IC50 (M); average if tested multiple times.
FGFR4 (h), sequence (P22455 22-802): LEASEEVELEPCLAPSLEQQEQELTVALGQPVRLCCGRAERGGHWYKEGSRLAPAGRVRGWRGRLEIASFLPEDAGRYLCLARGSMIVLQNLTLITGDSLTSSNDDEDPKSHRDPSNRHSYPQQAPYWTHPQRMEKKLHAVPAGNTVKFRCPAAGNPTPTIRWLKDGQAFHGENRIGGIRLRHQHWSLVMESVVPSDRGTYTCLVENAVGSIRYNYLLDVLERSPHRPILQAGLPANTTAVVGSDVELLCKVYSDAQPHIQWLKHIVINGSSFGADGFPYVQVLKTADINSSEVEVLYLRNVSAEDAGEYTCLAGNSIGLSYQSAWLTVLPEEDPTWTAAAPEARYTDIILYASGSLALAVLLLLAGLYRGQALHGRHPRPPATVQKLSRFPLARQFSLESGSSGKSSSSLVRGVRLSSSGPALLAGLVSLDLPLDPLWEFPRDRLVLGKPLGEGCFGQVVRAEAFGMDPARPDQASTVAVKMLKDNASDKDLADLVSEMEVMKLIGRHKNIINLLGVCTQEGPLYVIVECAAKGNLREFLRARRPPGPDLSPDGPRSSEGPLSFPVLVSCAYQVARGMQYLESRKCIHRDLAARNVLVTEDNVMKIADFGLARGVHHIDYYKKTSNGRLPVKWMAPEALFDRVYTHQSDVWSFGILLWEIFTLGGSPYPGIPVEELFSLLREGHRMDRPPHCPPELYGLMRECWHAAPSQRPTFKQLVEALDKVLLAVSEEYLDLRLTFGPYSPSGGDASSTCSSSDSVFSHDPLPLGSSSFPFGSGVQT
For assay [4], the target named is KDR (h) (Homo sapiens, UniProt P35968). The assay can be described thus: KDR (VEGFR2) (enzymatic assay), TR-FRET. It counts as biochemical. The settings on record: 120 min, pIC50 = -log IC50 (M), average if tested multiple times. The protocol:
KDR (VEGFR2) (Enzymatic Assay)
In a final reaction volume of 30 μL, KDR (h) (150 ng/ml) was incubated with 50 mM HEPES pH 7.5, 6 mM MnCl2, 1 mM DTT, 0.1 mM Na3VO4, 0.01% Triton-X-100, 500 nM Btn-Flt3 and 3 μM ATP in the presence of compound (1% DMSO final). After incubation for 120 minutes at room temperature the reaction was stopped with 2.27 nM EU-anti P-Tyr, 7 mM EDTA, 31.25 nM SA-XL-665 and 0.02% BSA which was present for 60 minutes at room temperature. Time-Resolved Fluorescence Resonance Energy Transfer (TR-FRET) signal (ex340 nm. Em 620 nm, em 655 nm) was measured afterwards and results are expressed in RFU (Relative Fluorescence Units). In this assay, the inhibitory effect of different compound concentrations (range 10 μM to 0.1 nM) was determined and used to calculate an IC50 (M) and pIC50 (−log IC50) value.

Assay [5] addresses FGFR1 (h) (Homo sapiens, UniProt P11362). The assay can be described thus: FGFR1 (enzymatic assay), TR-FRET. The conditions noted are these: FGFR 1 pIC50, 5 μM ATP, 60 min; pIC50 = -log IC50 (M); average if tested multiple times. The format is biochemical.
Assay [6] concerns the target T1, Ba/F3-FGFR1-transfected cells (Homo sapiens, UniProt P11362, cells depend on it, form not given).
T1 construct: other: minus IL3; 24 hours, Alamar Blue
The assay is described as follows: Ba/F3-FGFR1 (minus IL3 or plus IL3) cellular proliferation assay, Alamar Blue. The settings on record: minus IL3, 24 hours. The format is cell-based. The protocol:
Ba/F3-FGFR1 (Minus IL3 or Plus IL3) (Cellular Proliferation Assay)
(§1) In a 384 well plate, 100 nl of compound dilution in DMSO was sprayed before adding 50 μl cell culture medium (phenol red free RPMI-1640, 10% FBS, 2 mM L-Glutamine and 50 μg/ml Gentamycin) containing 20000 cells per well of Ba/F3-FGFR1-transfected cells. Cells were put in an incubator at 37° C. and 5% CO2. After 24 hours, 10 μl of Alamar Blue solution (0.5 mM K3Fe(CN)6, 0.5 mM K4Fe(CN)6, 0.15 mM Resazurin and 100 mM Phosphate Buffer) was added to the wells, incubated for 4 hours at 37° C. and 5% CO2 before RFU's (Relative Fluorescence Units) (ex. 540 nm., em. 590 nm.) were measured in a fluorescence plate reader.
(§2) In this assay, the inhibitory effect of different compound concentrations (range 10 μM to 0.1 nM) was determined and used to calculate an IC50 (M) and pIC50 (−log IC50) value. As a counterscreen the same experiment was performed in the presence of 10 ng/ml murine IL3.

Assay [7] addresses T2, Ba/F3-FGFR3-transfected cells (Homo sapiens, UniProt P22607, cells depend on it, form not given).
T2 construct: BAF3-FGFR3 (MIN IL3 Alamar Blue- pIC50); other: minus IL3; 24 hours, Alamar Blue
The assay can be described thus: Ba/F3-FGFR3 (minus IL3 or plus IL3) cellular proliferation assay, Alamar Blue. The settings on record: minus IL3; 24 hours, Alamar Blue. The format is cell-based. The protocol:
(§3) Ba/F3-FGFR3 (Minus IL3 or Plus IL3) (Cellular Proliferation Assay)
as §1, with “Ba/F3-FGFR3-transfected” for “Ba/F3-FGFR1-transfected”
as §2
Background: Resazurin is reduced to fluorescent resorufin, in cell work by metabolically active cells.

The target in assay [8] is T3, Ba/F3-KDR-transfected cells (Homo sapiens, UniProt P35968, cells depend on it, form not given).
T3 construct: BAF3-KDR (MIN IL3 Alamar Blue pIC50); other: minus IL3; 24 hours, Alamar Blue
T3 sequence (P35968 whole entry, change not shown): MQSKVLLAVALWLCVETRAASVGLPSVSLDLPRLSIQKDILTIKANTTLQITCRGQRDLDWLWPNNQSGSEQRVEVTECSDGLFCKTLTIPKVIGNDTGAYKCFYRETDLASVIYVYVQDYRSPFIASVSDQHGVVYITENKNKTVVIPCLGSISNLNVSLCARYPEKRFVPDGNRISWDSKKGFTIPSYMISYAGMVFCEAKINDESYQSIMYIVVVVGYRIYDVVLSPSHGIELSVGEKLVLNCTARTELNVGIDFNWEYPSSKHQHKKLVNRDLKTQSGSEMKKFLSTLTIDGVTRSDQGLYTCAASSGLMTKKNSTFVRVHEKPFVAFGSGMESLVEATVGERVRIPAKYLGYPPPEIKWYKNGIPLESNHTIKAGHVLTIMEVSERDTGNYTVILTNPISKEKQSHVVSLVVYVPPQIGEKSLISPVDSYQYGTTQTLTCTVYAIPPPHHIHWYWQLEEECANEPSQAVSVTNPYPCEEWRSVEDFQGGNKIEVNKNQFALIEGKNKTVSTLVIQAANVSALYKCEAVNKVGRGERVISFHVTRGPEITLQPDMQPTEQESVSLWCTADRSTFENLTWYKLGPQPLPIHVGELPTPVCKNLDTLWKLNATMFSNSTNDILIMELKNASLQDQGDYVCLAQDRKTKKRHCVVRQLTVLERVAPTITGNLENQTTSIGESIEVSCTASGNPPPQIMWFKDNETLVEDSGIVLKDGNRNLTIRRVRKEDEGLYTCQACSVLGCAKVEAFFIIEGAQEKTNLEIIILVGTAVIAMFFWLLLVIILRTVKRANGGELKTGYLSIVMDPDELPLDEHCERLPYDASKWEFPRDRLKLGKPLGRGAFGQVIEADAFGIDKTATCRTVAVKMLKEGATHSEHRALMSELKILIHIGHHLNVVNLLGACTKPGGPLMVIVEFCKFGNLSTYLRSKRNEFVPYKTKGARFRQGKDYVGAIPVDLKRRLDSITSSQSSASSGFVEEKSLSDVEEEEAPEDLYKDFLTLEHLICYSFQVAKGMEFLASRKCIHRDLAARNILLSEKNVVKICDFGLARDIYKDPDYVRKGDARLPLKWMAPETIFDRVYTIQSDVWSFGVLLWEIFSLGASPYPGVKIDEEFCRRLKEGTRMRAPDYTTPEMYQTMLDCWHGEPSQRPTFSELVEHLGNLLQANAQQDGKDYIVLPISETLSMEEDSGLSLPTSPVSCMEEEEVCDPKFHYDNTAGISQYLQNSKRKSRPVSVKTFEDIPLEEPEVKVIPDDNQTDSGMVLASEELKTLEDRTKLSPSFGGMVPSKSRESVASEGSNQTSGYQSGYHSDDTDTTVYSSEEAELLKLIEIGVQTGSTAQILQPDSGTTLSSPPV
The assay is described as follows: Ba/F3-KDR (minus IL3 or plus IL3) cellular proliferation assay, Alamar Blue. It counts as cell-based. The conditions noted are these: minus IL3; 24 hours, Alamar Blue. As for the experimental part:
(§4) Ba/F3-KDR (Minus IL3 or Plus IL3) (Cellular Proliferation Assay)
as §1, with “Ba/F3-KDR-transfected” for “Ba/F3-FGFR1-transfected”
as §2

For assay [9], the target named is Ba/F3-FGFR4-transfected cells (Homo sapiens, UniProt P22455). The assay is described as follows: Ba/F3-FGFR4 cellular proliferation assay, Alamar Blue. It counts as cell-based. The settings on record: 24 hours. The protocol:
Ba/F3-FGFR4 (Cellular Proliferation Assay)
as §1, with “Ba/F3-FGFR4-transfected” for “Ba/F3-FGFR1-transfected”
In this assay, the inhibitory effect of different compound concentrations (range 10 μM to 0.1 nM) was determined and used to calculate an IC50 (M) and pIC50 (−log IC50) value.

The test system of assay [10] is Ba/F3-FGFR3-transfected cells. The assay is described as follows: Ba/F3-FGFR3 (minus IL3 or plus IL3) cellular proliferation assay, Alamar Blue. It counts as cell-based. The settings on record: plus IL3 (10 ng/ml murine IL3, counterscreen); 24 hours, Alamar Blue; read-out: BAF3-FGFR3 (PLUS IL3 Alamar Blue pIC50) (converted). The protocol:
as §3
as §1, with “Ba/F3-FGFR3-transfected” for “Ba/F3-FGFR1-transfected”
as §2

The subject of assay [11] is Ba/F3-KDR-transfected cells. The assay is described as follows: Ba/F3-KDR (minus IL3 or plus IL3) cellular proliferation assay, Alamar Blue. It counts as cell-based. The conditions noted are these: plus IL3 (10 ng/ml murine IL3, counterscreen); 24 hours, Alamar Blue; read-out: BAF3-KDR (PLUS IL3 Alamar Blue pIC50) (converted). The protocol: as §4
as §1, with “Ba/F3-KDR-transfected” for “Ba/F3-FGFR1-transfected”
as §2

The mark [12] stands for this setting: 0.4 μM ATP, read-out: FGFR 2 pIC50 (converted).
Setting [13] is: 25 μM ATP, read-out: hFGFR 3 pIC50 (converted).
The mark [14] stands for this setting: 3 μM ATP, read-out: VEGFR KDR pIC50 (converted).

FGFR1 (h), sequence (P11362 22-822): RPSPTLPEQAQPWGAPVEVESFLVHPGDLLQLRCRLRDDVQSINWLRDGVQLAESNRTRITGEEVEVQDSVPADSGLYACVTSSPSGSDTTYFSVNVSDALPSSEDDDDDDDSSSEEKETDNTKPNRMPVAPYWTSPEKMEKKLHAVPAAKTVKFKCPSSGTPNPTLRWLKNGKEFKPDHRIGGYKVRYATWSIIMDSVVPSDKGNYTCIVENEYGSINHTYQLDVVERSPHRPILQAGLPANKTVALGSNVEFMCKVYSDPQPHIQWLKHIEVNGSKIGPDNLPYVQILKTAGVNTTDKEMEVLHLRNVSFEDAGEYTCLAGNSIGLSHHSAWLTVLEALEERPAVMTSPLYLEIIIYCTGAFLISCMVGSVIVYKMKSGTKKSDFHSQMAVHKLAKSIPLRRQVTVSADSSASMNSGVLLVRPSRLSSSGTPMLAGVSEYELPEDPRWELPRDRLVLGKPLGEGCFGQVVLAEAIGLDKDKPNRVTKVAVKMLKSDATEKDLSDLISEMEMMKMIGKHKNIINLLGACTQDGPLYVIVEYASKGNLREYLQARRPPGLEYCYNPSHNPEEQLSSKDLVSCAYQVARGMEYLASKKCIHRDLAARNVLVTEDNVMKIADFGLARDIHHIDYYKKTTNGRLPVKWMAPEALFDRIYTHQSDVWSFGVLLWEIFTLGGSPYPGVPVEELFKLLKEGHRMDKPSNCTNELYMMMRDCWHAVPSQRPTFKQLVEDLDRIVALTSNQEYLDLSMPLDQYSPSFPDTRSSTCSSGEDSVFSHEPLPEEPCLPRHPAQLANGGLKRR
T2 sequence (P22607 whole entry, change not shown): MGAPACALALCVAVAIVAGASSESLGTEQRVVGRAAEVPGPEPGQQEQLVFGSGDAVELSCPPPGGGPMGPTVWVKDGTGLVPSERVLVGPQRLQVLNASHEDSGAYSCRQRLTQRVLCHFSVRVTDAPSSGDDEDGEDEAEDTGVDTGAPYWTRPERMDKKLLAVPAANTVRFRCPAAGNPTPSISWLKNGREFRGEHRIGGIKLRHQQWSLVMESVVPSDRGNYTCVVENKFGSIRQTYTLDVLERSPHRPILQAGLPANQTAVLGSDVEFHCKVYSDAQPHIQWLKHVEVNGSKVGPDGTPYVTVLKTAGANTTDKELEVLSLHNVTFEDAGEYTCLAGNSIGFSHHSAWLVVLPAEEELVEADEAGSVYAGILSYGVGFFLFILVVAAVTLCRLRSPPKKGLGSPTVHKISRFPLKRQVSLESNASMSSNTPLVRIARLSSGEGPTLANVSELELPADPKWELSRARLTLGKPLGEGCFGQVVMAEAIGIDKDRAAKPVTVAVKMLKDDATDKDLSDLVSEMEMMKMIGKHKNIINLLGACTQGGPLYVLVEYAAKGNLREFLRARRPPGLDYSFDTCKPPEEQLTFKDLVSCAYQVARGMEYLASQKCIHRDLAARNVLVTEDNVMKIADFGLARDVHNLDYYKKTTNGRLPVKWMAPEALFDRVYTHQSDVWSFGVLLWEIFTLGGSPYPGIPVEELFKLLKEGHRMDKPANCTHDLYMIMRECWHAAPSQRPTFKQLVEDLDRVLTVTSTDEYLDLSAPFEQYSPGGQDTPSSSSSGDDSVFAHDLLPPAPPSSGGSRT

With `COc1cc(OC)cc(C(CCO)c2ccc3ncc(-c4cnn(C)c4)cc3c2)c1` (single isomer, unassigned) [Compound 36], the IC50 in assay [1] (setting [12]), in assay [2] (setting [13]), in [3] and in assay [4] (setting [14]) was over 1e-06 M in each case.
Consider `COc1cc(OC)cc(N(CCNC(C)C)c2ccc3ncc(-c4cnn(CCO)c4)cc3c2)c1` [Compound 13], for which the IC50 in assay [5] was 2.51e-09 M; in assay [1] (setting [12]), 6.61e-09 M; in assay [2] (setting [13]) it was 4.9e-09 M; in assay [3], 8.71e-09 M; in [4] (setting [14]), 1.29e-07 M. For the same compound, the “BAF3-FGFR1 (MIN IL3 pIC50)” value in assay [6] came out at 7.23. In assay [7], the “BAF3-FGFR3 (MIN IL3 Alamar Blue- pIC50)” value was 7. For the same compound, the “BAF3-KDR (MIN IL3 Alamar Blue pIC50)” value in assay [8] stood at 5.57. In addition, the “BAF3-FGFR 4 (pIC50)” value in assay [9] worked out at 6.81.
Take `COc1cc(OC)cc(/C(=C\C#N)c2ccc3ncc(-c4cnn(C)c4)cc3c2)c1` [Compound 30]: the IC50 in [1] (setting [12]) was 3.47e-08 M; in assay [2] (setting [13]) it was 2.19e-08 M; in assay [3], 3.02e-07 M; in [4] (setting [14]), 3.31e-07 M. In addition, the “BAF3-FGFR1 (MIN IL3 pIC50)” value in [6] came to 6.03. Further, the “BAF3-FGFR3 (MIN IL3 Alamar Blue- pIC50)” value in assay [7] came to 5.89. The “BAF3-KDR (MIN IL3 Alamar Blue pIC50)” value in [8] stood at 5.55. Moreover, the “BAF3-FGFR 4 (pIC50)” value in assay [9] is listed as 5.25.
With `COc1cc(OC)cc(C(=O)c2ccc3ncc(-c4cnn(C)c4)cc3c2)c1` [Compound 31], the IC50 in assay [1] (setting [12]) is 3.09e-08 M; in [2] (setting [13]), 1.86e-08 M; in [3], 2.57e-07 M; in [4] (setting [14]) it was 1.58e-07 M. Further, the “BAF3-FGFR1 (MIN IL3 pIC50)” value in assay [6] stood at 5.65. Moreover, in assay [7], the “BAF3-FGFR3 (MIN IL3 Alamar Blue- pIC50)” value amounted to 5.46. In addition, the “BAF3-KDR (MIN IL3 Alamar Blue pIC50)” value in assay [8] was under 5. For the same compound, the “BAF3-FGFR 4 (pIC50)” value in assay [9] is given as 5.12.
With `COc1cc(OC)cc(C(CCNC(C)C)c2ccc3ncc(-c4cnn(C)c4)cc3c2)c1` (stereo not drawn) [Compound 41], the IC50 in [1] (setting [12]) was 2.04e-08 M; in [2] (setting [13]) it was 3.89e-08 M; in [3] it was 1.66e-07 M; in assay [4] (setting [14]) it was over 1e-06 M; in [10], over 10000 nM; in [11] it was over 10000 nM. Also, in assay [6], the “BAF3-FGFR1 (MIN IL3 pIC50)” value turned out to be 6.43. For the same compound, in assay [7], the “BAF3-FGFR3 (MIN IL3 Alamar Blue- pIC50)” value is listed as 6.30. Also, the “BAF3-KDR (MIN IL3 Alamar Blue pIC50)” value in assay [8] is on record as under 5. Besides, the “BAF3-FGFR 4 (pIC50)” value in assay [9] was 5.78.
With `COc1cc(OC)cc(N(CC2CCC(=O)N2)c2ccc3ncc(-c4cnn(C)c4)cc3c2)c1` (stereo not drawn) [Compound 44], the IC50 was 3.24e-09 M in [1] (setting [12]); 1.7e-09 M in [2] (setting [13]); about 1.35e-08 M in [3]; 5.25e-08 M in assay [4] (setting [14]); over 10000 nM in assay [10]; over 10000 nM in [11]. Moreover, the “BAF3-FGFR1 (MIN IL3 pIC50)” value in [6] is 5.65. In addition, the “BAF3-FGFR3 (MIN IL3 Alamar Blue- pIC50)” value in assay [7] was determined as 6.61. Besides, the “BAF3-KDR (MIN IL3 Alamar Blue pIC50)” value in assay [8] stood at 5.18. Moreover, the “BAF3-FGFR 4 (pIC50)” value in assay [9] is 6.00.
As to `COc1cc(OC)cc(N(Cc2ncc[nH]2)c2ccc3ncc(C4=CCNCC4)cc3c2)c1` [Compound 46], the IC50 in assay [5] was 6.31e-09 M; in [1] (FGFR 2 pIC50, 0.4 μM ATP), 3.63e-09 M; in [2] (hFGFR 3 pIC50, 25 μM ATP), 2.45e-09 M; in assay [3], 1.7e-08 M; in assay [4] (VEGFR KDR pIC50, 3 μM ATP) it was 1.02e-06 M. Moreover, the “BAF3-FGFR1 (MIN IL3 pIC50)” value in [6] amounted to 5.89. Also, the “BAF3-FGFR3 (MIN IL3 Alamar Blue- pIC50)” value in assay [7] is recorded as 5.68. The “BAF3-KDR (MIN IL3 Alamar Blue pIC50)” value in assay [8] is recorded as under 5. In addition, the “BAF3-FGFR 4 (pIC50)” value in assay [9] was determined as 5.28.
Consider `COc1cc(OC)cc(N(Cc2ncc[nH]2)c2ccc3ncc(N4CCOCC4)cc3c2)c1` [Compound 55], for which the IC50 in [5] was 9.12e-08 M; in assay [1] (setting [12]) it was 2e-08 M; in assay [2] (setting [13]) it was 2.04e-08 M; in assay [3], 1.32e-07 M; in assay [4] (setting [14]) it was over 1e-06 M. In assay [6], the “BAF3-FGFR1 (MIN IL3 pIC50)” value is reported as 5.64. In addition, in assay [7], the “BAF3-FGFR3 (MIN IL3 Alamar Blue- pIC50)” value is 5.77. Also, the “BAF3-KDR (MIN IL3 Alamar Blue pIC50)” value in assay [8] was under 5. Moreover, the “BAF3-FGFR 4 (pIC50)” value in assay [9] came to 5.37.
On to `COc1cc(OC)cc(N(Cc2ncc[nH]2)c2ccc3ncc(-c4ccn(C)c4)cc3c2)c1` [Compound 62], for which the IC50 in assay [1] (setting [12]) is 2.09e-09 M; in [2] (setting [13]), 1.45e-09 M; in assay [3], 3.31e-09 M; in assay [4] (setting [14]), 2.57e-07 M. Further, the “BAF3-FGFR1 (MIN IL3 pIC50)” value in assay [6] was 6.63. The “BAF3-FGFR3 (MIN IL3 Alamar Blue- pIC50)” value in [7] is 6.75. In addition, the “BAF3-KDR (MIN IL3 Alamar Blue pIC50)” value in assay [8] is given as under 5. For the same compound, the “BAF3-FGFR 4 (pIC50)” value in [9] was found to be 6.24.
